Source: US11597737B2, “Small molecule inhibitors selective for polo-like kinase proteins” (UNIVERSITY OF SOUTH CAROLINA, priority 2016, dated 2023)

Experiments:
[1] = tested on: PC3 cells; assay: Cell cycle analysis after release (DAPI/BrdU FACS), FIG. 3; assay type: cell-based; conditions: FIG. 3 4th panel, concentration not given
Description: PLK specificity can be useful in therapeutic applications, as well as in research-oriented application.
(§1) Analysis of Cell Cycle Progression by FACS
(§2) Serum-Starved Synchronization
(§3) Cells were synchronized in G1 by serum starvation. Briefly, exponentially growing cells were plated overnight. Media (DMEM, 10% FBS, 1% Pen. Strep.) was then removed and replaced with media containing no FBS. Cells were starved for 72 hours then treated for 24 hours with inhibitor. Following treatment, cells were harvested and processed for endpoint experimental analysis.
(§4) Ethanol fixative was removed by centrifugation and the cells were washed with 1 mL ice-cold PBS/1% BSA. Cells were denatured by resuspending in 0.2 mg/mL pepsin in 2N HCl and incubated in 37° C. water bath for 15 minutes. Hydrolysis was then terminated by adding 1 M Invitrogen™ Novex® Tris-Glycine. Cells were then washed with PBS/1% BSA then the primary anti-BrdU antibody (1:100 dilution in TBFP; 0.5% Tween-20, 1% BSA, 1% FBS, PBS) was added and cells were incubated for 25 minutes in the dark, at room temperature. […] Cells were washed once more with PBS/1% BSA and re-suspended in DAPI for 30 minutes before being analyzed by flow cytometry.

[2] = biological target: T1, full length PLK1 (Homo sapiens, UniProt P53350); assay: PLK1 kinase inhibition assay (CycLex ELISA); assay type: biochemical; conditions: 7.5 μM ATP, read-out: PLK1 Kinase Inhibitory Act. IC50
T1 construct: This ELISA assay measures the catalytic activity of full length PLK1 for a defined substrate
T1 sequence (P53350 whole entry): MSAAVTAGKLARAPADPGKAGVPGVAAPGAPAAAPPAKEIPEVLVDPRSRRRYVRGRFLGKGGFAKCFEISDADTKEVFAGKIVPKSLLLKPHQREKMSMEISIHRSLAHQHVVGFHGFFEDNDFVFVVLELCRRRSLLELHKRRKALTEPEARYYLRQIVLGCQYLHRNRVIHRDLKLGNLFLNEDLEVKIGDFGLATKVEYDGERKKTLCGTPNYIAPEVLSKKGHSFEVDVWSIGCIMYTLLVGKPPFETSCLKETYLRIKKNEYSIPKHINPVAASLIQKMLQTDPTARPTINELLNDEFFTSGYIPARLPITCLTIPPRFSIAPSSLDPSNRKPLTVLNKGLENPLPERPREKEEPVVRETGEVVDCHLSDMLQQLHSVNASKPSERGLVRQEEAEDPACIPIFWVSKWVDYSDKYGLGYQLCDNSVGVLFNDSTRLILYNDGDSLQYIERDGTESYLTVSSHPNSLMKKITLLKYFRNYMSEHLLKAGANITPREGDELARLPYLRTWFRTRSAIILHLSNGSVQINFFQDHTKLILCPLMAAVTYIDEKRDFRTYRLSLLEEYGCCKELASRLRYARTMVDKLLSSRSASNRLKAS
Source text: PLK1 Kinase Inhibition Assay
The CycLex® Polo-like Kinase 1 Assay/Inhibitor Screening Kit was used to measure catalytic inhibition (MBL Life Science, Nagano, Japan). This ELISA assay measures the catalytic activity of full length PLK1 for a defined substrate, which is detected by an anti-phospho-threonine antibody (PPT-07) and peroxidase coupled secondary antibody. […] Peroxidase catalyzes the conversion of the colorless solution to yellow, which was quantified using a DTX 880 plate reader. Absorbance measurements (450 nm) were plotted to calculate activity in each sample, and % inhibition was calculated in the wells relative to activity in the absence of inhibitor.

[3] = Cell cycle analysis and caspase apoptosis assay; assay type: cell-based
Source text: Disclosed small molecule inhibitors can also encourage apoptosis.

[4] = tested on: PC3 cells; assay: Cell cycle analysis and BrdU pulse labeling in PC3 cells, FIG. 9-11; assay type: cell-based
Description: as §1, §2, §3, §4
The PLK1 PBD-inhibitors were analyzed further by cell cycle analysis in PC3 cells (FIG. 9). […] To quantify the percentage of cells actively proliferating (synthesizing their DNA) or arrested Bromodeoxyuridine (BrdU) pulse labeling was carried out and analyzed by flow cytometry.

[5] = tested on: KRAS mutant lung cancer (A-549) cells; assay: Cell viability assay (MTT), A-549; assay type: cell-based; conditions: 72 hours
Description: A-549 lung cancer cells were maintained in Hams F-12 1× with glutamine (Corning® Cellgro, Manassas, Va.), and supplemented with 10% FBS or Corning® Nu-Serum™ (BD™ Biosciences, Franklin Lakes, N.J.) and 1% penicillin/streptomycin (Invitrogen™) in a humidified incubator and 5% C02 at 37° C.
(§5) Exponentially growing cells were plated in 96-well dishes. Dose response curves were used to treat cells for 72 hours with inhibitors. Following the three-day treatment, cell viability was measured using the MTT (3-(4,5-dimethylthiazol-2-yl)-2,5-diphenyltetrazolium bromide) colorimetric assay. Cells were incubated for 3 hours with MTT allowing viable cells to metabolize the tetrazolium dye to a purple colored solution. Absorbance measurements (595 nm) were quantified using a DTX 880 plate reader and IC50 values were generated for FLIPs.

[6] = tested on: HeLa cervical cancer cells; assay: Cell viability assay (MTT), HeLa; assay type: cell-based; conditions: MTT, 72 hours; read-out: HeLa
Description: HeLa cervical cancer cells were obtained from ATCC (Manassas, Va.). […] Cells were maintained in DMEM (Invitrogen™, Carlsebad, Calif.) supplemented with 10% FBS or Corning© Nu-Serum™ (BD™ Biosciences, Franklin Lakes, N.J.) and 1% penicillin/streptomycin (Invitrogen™) in a humidified incubator and 5% CO2 at 37° C.
as §5, with “solution.” for “solution. Absorbance measurements (595 nm) were quantified using a DTX 880 plate reader and IC50 values were generated for FLIPs.”

[7] = tested on: HCT-116 (p53+/+) colon cancer cells; assay: Cell viability assay (MTT), HCT116 p53+/+; assay type: cell-based; conditions: 72 hours
Description: as §5, with “solution.” for “solution. Absorbance measurements (595 nm) were quantified using a DTX 880 plate reader and IC50 values were generated for FLIPs.”

[8] = tested on: PTEN deficient prostate cancer (PC3) cells; assay: Cell viability assay (MTT), PC3; assay type: cell-based; conditions: MTT, 72 hours; read-out: PCC-3
Description: PC3 prostate cancer cells were maintained in DMEM (Invitrogen™, Carlsebad, Calif.) supplemented with 10% FBS or Corning® Nu-Serum™ (BD™ Biosciences, Franklin Lakes, N.J.) and 1% penicillin/streptomycin (Invitrogen™) in a humidified incubator and 5% C02 at 37° C.
as §5, with “solution.” for “solution. Absorbance measurements (595 nm) were quantified using a DTX 880 plate reader and IC50 values were generated for FLIPs.”

[9] = biological target: T2, PLK1 PBD (367-603) (Homo sapiens, UniProt P53350); assay: Fluorescence polarization assay, PLK1 PBD; assay type: binding
T2 construct: PLK1 PBD (367-603); purchased BPS Biosciences Inc. (San Diego, Calif.)
T2 sequence (P53350 367-603): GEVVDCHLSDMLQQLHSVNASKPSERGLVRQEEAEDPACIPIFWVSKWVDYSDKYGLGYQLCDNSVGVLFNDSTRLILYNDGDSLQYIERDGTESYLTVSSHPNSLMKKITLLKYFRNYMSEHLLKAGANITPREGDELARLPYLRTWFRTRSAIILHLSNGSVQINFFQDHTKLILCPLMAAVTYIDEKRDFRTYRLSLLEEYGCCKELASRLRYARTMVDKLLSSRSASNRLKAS
Description: Fluorescence Polarization Assay
Materials were dissolved in DMSO (10 mM) and diluted from 10 nM to 600 μM (maximum of 6% DMSO tolerance in the assay). […] Incubation was carried out at room temperature for 45 minutes. Fluorescence was measured using a DTX 880 plate reader and Multimode Analysis software (Beckman Coulter, Brea, Calif.). […] Each data point was performed in triplicate for every experiment, and experiments were performed at least three times. An IC50 value for each compound was calculated from linear regression analysis of the plots.

[10] = tested on: HCT-116 (p53−/−) colon cancer cells; assay: Cell viability assay (MTT), HCT116 p53-/-; assay type: cell-based; conditions: 72 hours
Description: HCT-116 (p53+/+ and −/−) colon cancer cells were maintained DMEM (Invitrogen™, Carlsebad, Calif.) supplemented with 10% FBS or Nu-serum (BD™ Biosciences, Franklin Lakes, N.J.) and 1% penicillin/streptomycin (Invitrogen™) in a humidified incubator and 5% C02 at 37° C.
as §5

IC50 [2]: 24.3 µM | IC50 [5]: 5.1 ± 1.5 µM | IC50 [6]: 15.5 ± 1.7 µM | IC50 [7]: 17.4 ± 5.6 µM | IC50 [8]: 16.3 ± 2.1 µM | PLK1 versus PLK3 specificity (in words) ([9]; PBD binding): high selectivity for PLK1 | IC50 ([9]; PLK1 PBD binding, fluorescence polarization, read-out: PLK1 IC50): 2.16 ± 0.01 µM | IC50 [10]: 10 ± 1 µM
Compound: CCCCCCCCc1ccc(C(=O)Nc2ccc(C)cc2C(=O)O)cc1 [SCCP ID No. 5915]
G2/M by DAPI [1]: 42% | cells BrdU+ [1]: 13% | levels of apoptosis (in words) [3]: high levels of apoptosis | cells replicating their DNA (BrdU labeling) ([4]; 5 μM): 28.3% | BrdU+ ([4]; 15 μM): 3.6% | cell cycle phenotype (in words) ([4]; 15 μM): G1 delay or arrest
